Reference: US10266513B2 (Pfizer Inc., priority 2012, dated 2019)

What follows are molecules tested against human full-length BTK Kinase (Homo sapiens (Human), UniProt Q06187) (assay: Human BTK LanthaScreen Assay (TR-FRET)). Details: 50 μM ATP, FAM-Srctide peptide substrate, read-out: BTK Inhibition IC50.
Format: biochemical
From the text: Human BTK LanthaScreen Assay

Sequence of human full-length BTK Kinase (Q06187 whole entry): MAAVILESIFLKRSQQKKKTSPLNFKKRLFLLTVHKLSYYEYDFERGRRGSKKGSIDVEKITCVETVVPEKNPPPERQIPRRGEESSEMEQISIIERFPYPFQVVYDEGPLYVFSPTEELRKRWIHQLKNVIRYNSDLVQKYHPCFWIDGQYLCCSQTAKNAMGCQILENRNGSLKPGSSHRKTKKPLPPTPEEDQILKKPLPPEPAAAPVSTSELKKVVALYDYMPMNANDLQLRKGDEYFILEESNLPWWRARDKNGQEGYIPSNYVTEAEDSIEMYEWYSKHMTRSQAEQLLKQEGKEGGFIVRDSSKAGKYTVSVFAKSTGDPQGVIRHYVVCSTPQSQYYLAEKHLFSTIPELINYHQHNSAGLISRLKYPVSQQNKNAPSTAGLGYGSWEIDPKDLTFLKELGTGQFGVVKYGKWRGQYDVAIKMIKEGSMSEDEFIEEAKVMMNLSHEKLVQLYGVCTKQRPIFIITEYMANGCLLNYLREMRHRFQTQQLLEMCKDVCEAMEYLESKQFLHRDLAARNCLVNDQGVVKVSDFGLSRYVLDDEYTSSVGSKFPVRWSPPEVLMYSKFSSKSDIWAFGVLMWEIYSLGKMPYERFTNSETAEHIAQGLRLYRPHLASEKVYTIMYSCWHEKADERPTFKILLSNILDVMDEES

SMILES	IC50 [nM]
N#CN1CCCC(n2nc(-c3ccc(Cc4cccc(F)c4)cc3)c(C(N)=O)c2N)C1 (single isomer, unassigned) [Example 78]	1.4
N#CN1CCCC(n2nc(-c3ccc(Oc4ccc(F)cc4Cl)cc3)c(C(N)=O)c2N)C1 (single isomer, unassigned) [Example 37]	0.79
COC/C=C/C(=O)N1CCC[C@@H](n2nc(-c3ccc(Oc4ccc(F)cc4F)cc3)c(C(N)=O)c2N)C1 [Example 138, 5-amino-3-[4-(2,4-difluorophenoxy)phenyl]-1-{(3R)-1-[(2E)-4-methoxybut-2-enoyl]piperidin-3-yl}-1H-pyrazole-4-carboxamide]	21.8
Cc1ccc(Oc2cccc(-c3nn(C4CCCN(C#N)C4)c(N)c3C(N)=O)c2)cc1F (centres unmarked) [Example 96, 5-amino-1-(1-cyanopiperidin-3-yl)-3-[3-(3-fluoro-4-methylphenoxy)phenyl]-1H-pyrazole-4-carboxamide]	21.9
N#CN1CCCC(n2nc(-c3ccc(Oc4ccc(F)cc4F)cc3)c(C(N)=O)c2N)C1 (single isomer, unassigned) [Example 26]	17.3
N#CN1CCOCC(n2nc(-c3ccc(Oc4ccccc4)cc3)c(C(N)=O)c2N)C1 (centres unmarked) [Example 10, 5-amino-1-(4-cyano-1,4-oxazepan-6-yl)-3-(4-phenoxyphenyl)-1H-pyrazole-4-carboxamide]	13.5
CC(C)c1ccccc1Oc1cccc(-c2nn(C3CCCN(C#N)C3)c(N)c2C(N)=O)c1 (centres unmarked) [Example 97, 5-amino-1-(1-cyanopiperidin-3-yl)-3-[3-(2-isopropylphenoxy)phenyl]-1H-pyrazole-4-carboxamide]	52.8
N#CN1CCCC(n2nc(-c3ccc(C(O)c4ccccc4)cc3)c(C(N)=O)c2N)C1 (centres unmarked) [Example 88, 5-amino-1-(1-cyanopiperidin-3-yl)-3-{4-[hydroxy(phenyl)methyl]phenyl}-1H-pyrazole-4-carboxamide]	5.7
Cc1ccc(Oc2ccc(-c3nn(C4CCCN(C#N)C4)c(N)c3C(N)=O)cc2)nc1 (single isomer, unassigned) [Example 114]	10.1
N#CN1CCCC(n2nc(-c3ccc(Oc4ccc(F)c(C(F)(F)F)c4)cc3)c(C(N)=O)c2N)C1 (centres unmarked) [Example 64, 5-amino-1-(1-cyanopiperidin-3-yl)-3-{4-[4-fluoro-3-(trifluoromethyl)phenoxy]phenyl}-1H-pyrazole-4-carboxamide]	8.7
N#CN1CCCC(n2nc(-c3ccc(Oc4cc(Cl)cc(Cl)c4)cc3)c(C(N)=O)c2N)C1 (centres unmarked) [Example 60, 5-amino-1-(1-cyanopiperidin-3-yl)-3-[4-(3,5-dichlorophenoxy)phenyl]-1H-pyrazole-4-carboxamide]	4.8
N#CN1CCCC(n2nc(-c3cccc(Cc4ccc(Cl)cc4)c3)c(C(N)=O)c2N)C1 (centres unmarked) [Example 92, 5-amino-3-[3-(4-chlorobenzyl)phenyl]-1-(1-cyanopiperidin-3-yl)-1H-pyrazole-4-carboxamide]	73.4
C=C(C)C(=O)N1CCC[C@@H](n2nc(-c3ccc(Oc4ccc(F)cc4F)cc3)c(C(N)=O)c2N)C1 [Example 139, 5-amino-3-[4-(2,4-difluorophenoxy)phenyl]-1-[(3R)-1-(2-methylacryloyl)piperidin-3-yl]-1H-pyrazole-4-carboxamide]	247
N#CN1CCCC(n2nc(-c3ccc(Oc4ccccc4Cl)cc3)c(C(N)=O)c2N)C1 (centres unmarked) [Example 56, 5-amino-3-[4-(2-chlorophenoxy)-phenyl]-1-(1-cyanopiperidin-3-yl)-1H-pyrazole-4-carboxamide]	1.3
N#CN1CCCC(n2nc(-c3ccc(Oc4cc(Cl)ccc4Cl)cc3)c(C(N)=O)c2N)C1 (centres unmarked) [Example 55, 5-amino-1-(1-cyanopiperidin-3-yl)-3-[4-(2,5-dichlorophenoxy)phenyl]-1H-pyrazole-4-carboxamide]	2.2
N#CN1CCCC(n2nc(-c3ccc(Oc4ccc(Cl)cc4Cl)cc3)c(C(N)=O)c2N)C1 (centres unmarked) [Example 50, 5-amino-1-(1-cyanopiperidin-3-yl)-3-[4-(2,4-dichlorophenoxy)phenyl]-1H-pyrazole-4-carboxamide]	1.8
N#CN1CCC[C@@H](n2nc(-c3ccc(Cc4ccccc4Cl)cc3)c(C(N)=O)c2N)C1 [Example 72, (R)-5-amino-3-(4-(2-chlorobenzyl)phenyl)-1-(1-cyanopiperidin-3-yl)-1H-pyrazole-4-carboxamide]	0.54
CC(C)c1ccc(Oc2cccc(-c3nn(C4CCCN(C#N)C4)c(N)c3C(N)=O)c2)cc1 (centres unmarked) [Example 100, 5-amino-1-(1-cyanopiperidin-3-yl)-3-[3-(4-isopropylphenoxy)phenyl]-1H-pyrazole-4-carboxamide]	16.3
Cc1cc(Oc2cccc(-c3nn(C4CCCN(C#N)C4)c(N)c3C(N)=O)c2)ccc1C(C)C (centres unmarked) [Example 101, 5-amino-1-(1-cyanopiperidin-3-yl)-3-[3-(4-isopropyl-3-methylphenoxy)phenyl]-1H-pyrazole-4-carboxamide]	5.3

SMILES	IC50 [nM]
N#CN1CCCC(n2nc(-c3ccc(Cc4ccc(Cl)cc4)cc3)c(C(N)=O)c2N)C1 (centres unmarked) [Example 86, 5-amino-3-[4-(4-chlorobenzyl)phenyl]-(1-cyanopiperidin-3-yl)-1H-pyrazole-4-carboxamide]	26.8
N#CN1CCCC(n2nc(-c3ccc(Oc4cc(F)cc(Cl)c4)cc3)c(C(N)=O)c2N)C1 (centres unmarked) [Example 51, 5-amino-3-[4-(3-chloro-5-fluoro-phenoxy)phenyl]-1-(1-cyanopiperidin-3-yl)-1H-pyrazole-4-carboxamide]	1.9
N#CN1CCCC(n2nc(-c3ccc(Cc4ccc(F)cc4F)cc3)c(C(N)=O)c2N)C1 (centres unmarked) [Example 80, 5-amino-1-(1-cyanopiperidin-3-yl)-3-[4-(2,4-difluorobenzyl)phenyl]-1H-pyrazole-4-carboxamide]	15.6
N#CN1CCCC(n2nc(-c3ccc(Oc4ccc(Cl)cn4)cc3)c(C(N)=O)c2N)C1 (single isomer, unassigned) [Example 109]	128
N#CN1CCCC(n2nc(-c3ccc(Cc4cccc(F)c4)cc3)c(C(N)=O)c2N)C1 (single isomer, unassigned) [Example 79]	31
N#CN1CCCC(n2nc(-c3ccc(Oc4ccc(F)cc4F)cc3)c(C(N)=O)c2N)C1 (centres unmarked) [Example 25, 5-amino-1-(1-cyanopiperidin-3-yl)-3-[4-(2,4-difluorophenoxy)phenyl]-1H-pyrazole-4-carboxamide]	2.18
N#CN1CCCC(n2nc(-c3cccc(Oc4ccc(F)c(F)c4)c3)c(C(N)=O)c2N)C1 (centres unmarked) [Example 105, 5-amino-1-(1-cyanopiperidin-3-yl)-3-[3-(3,4-difluorophenoxy)phenyl]-1H-pyrazole-4-carboxamide]	55.5
N#CN1CCCC(n2nc(-c3cccc(Cc4ccc(F)cc4)c3)c(C(N)=O)c2N)C1 (centres unmarked) [Example 93, 5-amino-1-(1-cyanopiperidin-3-yl)-3-[3-(4-fluorobenzyl)phenyl]-1H-pyrazole-4-carboxamide]	35
N#CCN1CC2CC1CC2n1nc(-c2ccc(Oc3ccccc3)cc2)c(C(N)=O)c1N (centres unmarked) [Example 12, 5-amino-1-[2-(cyanomethyl)-2-azabicyclo[2.2.1]hept-5-yl]-3-(4-phenoxyphenyl)-1H-pyrazole-4-carboxamide]	54.2
N#CN1CCCC(n2nc(-c3ccc(Oc4cc(F)cc(F)c4)cc3)c(C(N)=O)c2N)C1 (centres unmarked) [Example 66, 5-amino-1-(1-cyanopiperidin-3-yl)-3-[4-(3,5-difluorophenoxy)phenyl]-1H-pyrazole-4-carboxamide]	7.2
Cc1ccc(Oc2ccc(-c3nn(C4CCCN(C#N)C4)c(N)c3C(N)=O)cc2)cc1C (centres unmarked) [Example 16, 5-amino-1-(1-cyanopiperidin-3-yl)-3-[4-(3,4-dimethylphenoxy)phenyl]-1H-pyrazole-4-carboxamide]	1.28
C[C@H]1CC[C@@H](n2nc(-c3ccc(Oc4ccc(F)cc4F)cc3)c(C(N)=O)c2N)CN1C#N (relative stereo) [Example 121, 5-amino-1-[(3R*,6S*)-1-cyano-6-methylpiperidin-3-yl]-3-[4-(2,4-difluorophenoxy)phenyl]-1H-pyrazole-4-carboxamide]	9.9
Cc1cccc(Cc2ccc(-c3nn(C4CCCN(C#N)C4)c(N)c3C(N)=O)cc2)c1 (centres unmarked) [Example 68, 5-amino-1-(1-cyanopiperidin-3-yl)-3-[4-(3-methylbenzyl)phenyl]-1H-pyrazole-4-carboxamide]	1.9
N#CN1CCCC(n2nc(-c3ccc(Oc4ccc(F)cn4)cc3)c(C(N)=O)c2N)C1 (centres unmarked) [Example 111, 5-amino-1-(1-cyanopiperidin-3-yl)-3-{4-[(5-fluoropyridin-2-yl)oxy]phenyl}-1H-pyrazole-4-carboxamide]	119
N#CN1CCCC(n2nc(-c3ccc(Oc4ccc(F)cc4)cc3)c(C(N)=O)c2N)C1 (centres unmarked) [Example 41, 5-amino-1-(1-cyanopiperidin-3-yl)-3-[4-(4-fluorophenoxy)phenyl]-1H-pyrazole-4-carboxamide]	6.3
N#C/C=C/C(=O)N1CCC[C@@H](n2nc(-c3ccc(Oc4cccc(C(F)(F)F)n4)cc3)c(C(N)=O)c2N)C1 [Example 166, 5-amino-1-{(3R)-1-[(2E)-3-cyanoprop-2-enoyl]piperidin-3-yl}-3-(4-{[6-(trifluoromethyl)pyridin-2-yl]oxy}phenyl)-1H-pyrazole-4-carboxamide]	2.2
N#CN1CCCC(n2nc(-c3ccc(Oc4ccc(F)c(F)c4F)cc3)c(C(N)=O)c2N)C1 (centres unmarked) [Example 61, 5-amino-1-(1-cyanopiperidin-3-yl)-3-[4-(2,3,4-trifluorophenoxy)phenyl]-1H-pyrazole-4-carboxamide]	5.1
CC/C=C/C(=O)N1CCC[C@@H](n2nc(-c3ccc(Oc4ccc(F)cc4F)cc3)c(C(N)=O)c2N)C1 [Example 143, 5-amino-3-[4-(2,4-difluorophenoxy)phenyl]-1-{(3R)-1-[(2E)-pent-2-enoyl]piperidin-3-yl}-1H-pyrazole-4-carboxamide]	125
N#CN1CCCC(n2nc(-c3ccc(Cc4ccccc4F)cc3)c(C(N)=O)c2N)C1 (centres unmarked) [Example 74, 5-amino-1-(1-cyanopiperidn-3-yl)-3-[4-(2-fluorobenzyl)phenyl]-1H-pyrazole-4-carboxamide]	1
